# From US20260193272A1, “SELENIUM CONTAINING HETEROCYCLE COMPOUNDS AND USE THEREOF” (HELIOS HUAMING BIOPHARMA CO., LTD., priority 2022, published 2026)
# Target: T1, PAD4 enzyme (Homo sapiens, UniProt Q9UM07)
# T1 construct: PAD4 enzyme was diluted to 30 nM in Assay Buffer
# Assay: In-vitro measurement for enzymatic PAD4 citrullination inhibition activity (ammonia release)
# Format: biochemical
# Settings: read-out: IC50 of inhibition enzymatic activity of PAD4 (Colorimetric assays, Nature Chemical Biology, 2015, 11: 189-191)
# Method: Citrullination was detected via ammonia release based on published methodology (Nature Chemical Biology, 2015, 11: 189-191).
# PAD4 enzyme was diluted to 30 nM in Assay Buffer (100 mM HEPES, 50 mM NaCl, 2 mM DTT, 0.6 mg/ml BSA, pH 8) and added to wells containing various concentrations of compound or DMSO vehicle (0.8% final) in a high-volume black 96-well plate (Greiner). Following a 60-min preincubation at 27° C., the reaction was initiated by the addition of substrate (3 mM BAEE in 100 mM HEPES, 50 mM NaCl, […] CaCl2, 2 mM DTT, pH 8). The reaction was stopped after 90 min by the addition of stop/detection buffer containing 50 mM EDTA, 2.6 mM o-phthalaldehyde and 2.6 mM DTT. Assays were incubated at 27° C. for 120 min before measuring fluorescence (λex 410/λem 476) on an Envision plate reader (PerkinElmer). After which IC50 values were calculated using GraphPad Prism 8.0.
# T1 sequence (Q9UM07 whole entry): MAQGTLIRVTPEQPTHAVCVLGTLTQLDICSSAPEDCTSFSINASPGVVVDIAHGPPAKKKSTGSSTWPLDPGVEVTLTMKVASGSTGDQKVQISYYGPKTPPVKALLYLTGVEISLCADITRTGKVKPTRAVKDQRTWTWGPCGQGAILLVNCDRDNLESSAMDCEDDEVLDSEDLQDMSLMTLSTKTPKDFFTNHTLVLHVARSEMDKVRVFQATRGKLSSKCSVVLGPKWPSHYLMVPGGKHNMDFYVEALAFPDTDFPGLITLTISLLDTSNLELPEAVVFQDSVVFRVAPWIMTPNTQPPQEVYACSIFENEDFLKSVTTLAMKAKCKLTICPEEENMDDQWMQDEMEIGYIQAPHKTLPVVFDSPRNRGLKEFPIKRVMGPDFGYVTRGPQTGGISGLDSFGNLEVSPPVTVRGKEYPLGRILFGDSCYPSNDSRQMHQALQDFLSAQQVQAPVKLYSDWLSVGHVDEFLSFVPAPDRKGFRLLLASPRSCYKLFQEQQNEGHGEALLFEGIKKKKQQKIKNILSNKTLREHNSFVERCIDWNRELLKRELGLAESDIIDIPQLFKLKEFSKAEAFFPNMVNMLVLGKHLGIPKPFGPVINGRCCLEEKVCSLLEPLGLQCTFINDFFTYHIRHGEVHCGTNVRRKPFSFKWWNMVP
row,Structure (SMILES),IC50 [nM]
1,COc1ccccc1Cn1c(-c2nc3cc(C(=O)N4C[C@H](N)CC[C@@H]4C)cc(OC)c3n2C)cc2[se]c(C)nc21 [HH-26],100 to 500
2,COc1cc(C(=O)N2C[C@H](N)CC[C@@H]2C)cc2nc(-c3cc4[se]c(C)nc4n3Cc3ccsc3)n(C)c12 [HH-34],50 to 100
3,COc1cc(C(=O)N2C[C@H](N)CC[C@@H]2C)cc2nc(-c3cc4[se]c(C)nc4n3Cc3ccncc3)n(C)c12 [HH-29],100 to 500
4,COc1cc(C(=O)N2C[C@H](N)C[C@@H](F)C2)cc2nc(-c3cc4[se]c(C5CCNCC5)nc4n3CC3CC3)n(C)c12 [HH-36],100 to 500
5,COc1cc(C(=O)N[C@@H]2CC[C@H](C)NC2)cc2nc(-c3cc4cc[se]c4n3CC3CC3)n(C)c12 [HH-66],100 to 500
6,COc1ccc(-c2cc3c(cc(-c4nc5cc(C(=O)N6C[C@H]7CC[C@@H]6[C@@H]7N)cc(OC)c5n4C)n3CC3CC3)[se]2)cc1 [HH-58],100 to 500
7,COc1cc(C(=O)N2CCC[C@@H](N)C2)cc2nc(-c3cc4[se]c(C)cc4n3CC3CC3)n(C)c12 [HH-50],50 to 100
8,CCc1nc2c(cc(-c3nc4cc(C(=O)N5C[C@H]6CC[C@@H]5[C@@H]6N)cc(OC)c4n3C)n2CC2CC2)[se]1 [HH-1],≤ 50
9,COc1cc(C(=O)N2C[C@H]3CC[C@@H]2[C@@H]3N)cc2nc(-c3cc4[se]c(-c5ccccn5)nc4n3CC3CC3)n(C)c12 [HH-44],100 to 500
10,COc1cc(C(=O)N2C[C@H](N)C[C@@H](F)C2)cc2nc(-c3cc4cc[se]c4n3CC3CC3)n(C)c12 [HH-64],50 to 100
11,COc1cc(C(=O)N2C[C@H](N)C[C@@H](F)C2)cc2nc(-c3cc4[se]c(C5CC5)nc4n3CC3CC3)n(C)c12 [HH-5],≤ 50
12,COc1cc(C(=O)N2C[C@H](N)CC[C@@H]2C)cc2nc(-c3cc4cc[se]c4n3CC3CC3)n(C)c12 [HH-65],50 to 100
13,COc1cc(C(=O)N2C[C@H]3CC[C@@H]2[C@@H]3N)cc2nc(-c3cc4[se]c(C)nc4n3Cc3ccncc3)n(C)c12 [HH-30],100 to 500
14,COc1cc(C(=O)N2C[C@H](N)CC[C@@H]2C)cc2nc(-c3cc4[se]c(C5CCCN5)cc4n3CC3CC3)n(C)c12 (stereo partly drawn) [HH-54],50 to 100
15,COc1ccccc1-c1cc2c(cc(-c3nc4cc(C(=O)N5C[C@H](N)C[C@@H](F)C5)cc(OC)c4n3C)n2CC2CC2)[se]1 [HH-60],100 to 500
16,COc1cc(C(=O)N2C[C@H](N)CC(F)(F)C2)cc2nc(-c3cc4[se]c(C)nc4n3CC3CC3)n(C)c12 [HH-13],> 500
17,CCn1c(-c2nc3cc(C(=O)N4C[C@H]5CC[C@@H]4[C@@H]5N)cc(OC)c3n2C)cc2[se]c(C)nc21 [HH-20],100 to 500

# Now from value to compound:
row,IC50 [nM],Structure (SMILES)
1,≤ 50,COc1cc(C(=O)N2C[C@H](N)CC[C@@H]2C)cc2nc(-c3cc4[se]c(C)nc4n3CC3CC3)n(C)c12 [HH-8]
2,≤ 50,COc1cc(C(=O)N2C[C@H](N)CC[C@@H]2C)cc2nc(-c3cc4[se]c(C5CC5)nc4n3CC3CC3)n(C)c12 [HH-6]
3,≤ 50,COc1cc(C(=O)N2C[C@H](N)C[C@@H](F)C2)cc2nc(-c3cc4[se]c(C)nc4n3CC3CC3)n(C)c12 [HH-10]
4,≤ 50,CCc1nc2c(cc(-c3nc4cc(C(=O)N5C[C@H](N)CC[C@@H]5C)cc(OC)c4n3C)n2CC2CC2)[se]1 [HH-2]
5,100 to 500,CCn1c(-c2nc3cc(C(=O)N4C[C@H](N)CC[C@@H]4C)cc(OC)c3n2C)cc2[se]c(C)nc21 [HH-19]
6,100 to 500,COc1cc(C(=O)N2C[C@H](N)CC[C@@H]2C)cn2nc(-c3cc4[se]c(C)nc4n3CC3CC3)c(C)c12 [HH-67]
7,≤ 50,COc1cc(C(=O)N2C[C@H]3CC[C@@H]2[C@@H]3N)cc2nc(-c3cc4[se]c(C)nc4n3CC3CC3)n(C)c12 [HH-9]
8,≤ 50,COc1cc(C(=O)N2CCC[C@@H](N)C2)cc2nc(-c3cc4[se]c(C)nc4n3CC3CC3)n(C)c12 [HH-12]
9,≤ 50,COc1cc(C(=O)N2C[C@H](N)CC[C@@H]2C)cc2nc(-c3cc4[se]c(C)cc4n3CC3CC3)n(C)c12 [HH-49]
10,> 500,COc1cc(C(=O)N2C[C@H](N)CC[C@@H]2C)cc2nc(-c3cc4[se]c(-c5ccc(C)cc5)nc4n3CC3CC3)n(C)c12 [HH-45]
